# Assay results: PMC7044277 (Nature Communications, 2020)
# Where “and” joins values, the source holds several entries; their conditions need not be identical. Equal values may be shown once.
# Legend:
# Format in all cases: cell-based
# 320 non-olfactory GPCRs [1] = target: T1, 320 non-olfactory GPCRs (Homo sapiens, UniProt O00398); conditions: receptor P2RY10; replicate values, Fig_4g
# T1 construct: expressed in transfected cells; host or cells: HTLA cells
# 320 non-olfactory GPCRs [2] = target: T2, 320 non-olfactory GPCRs (Homo sapiens, UniProt O14842)
# T2 construct: expressed in transfected cells; host or cells: HTLA cells
# T2 sequence (O14842 whole entry): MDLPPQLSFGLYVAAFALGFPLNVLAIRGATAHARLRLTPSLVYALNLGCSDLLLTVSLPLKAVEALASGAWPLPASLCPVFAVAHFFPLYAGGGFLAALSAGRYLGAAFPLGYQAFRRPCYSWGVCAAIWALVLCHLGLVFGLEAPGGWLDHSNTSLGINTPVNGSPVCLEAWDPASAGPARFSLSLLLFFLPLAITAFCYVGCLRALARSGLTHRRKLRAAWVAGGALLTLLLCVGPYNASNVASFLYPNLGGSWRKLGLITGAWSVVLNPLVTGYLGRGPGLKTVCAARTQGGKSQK
# 320 non-olfactory GPCRs [3] = target: T3, 320 non-olfactory GPCRs (Homo sapiens, UniProt P35368)
# T3 construct: expressed in transfected cells; host or cells: HTLA cells
# T3 sequence (P35368 whole entry): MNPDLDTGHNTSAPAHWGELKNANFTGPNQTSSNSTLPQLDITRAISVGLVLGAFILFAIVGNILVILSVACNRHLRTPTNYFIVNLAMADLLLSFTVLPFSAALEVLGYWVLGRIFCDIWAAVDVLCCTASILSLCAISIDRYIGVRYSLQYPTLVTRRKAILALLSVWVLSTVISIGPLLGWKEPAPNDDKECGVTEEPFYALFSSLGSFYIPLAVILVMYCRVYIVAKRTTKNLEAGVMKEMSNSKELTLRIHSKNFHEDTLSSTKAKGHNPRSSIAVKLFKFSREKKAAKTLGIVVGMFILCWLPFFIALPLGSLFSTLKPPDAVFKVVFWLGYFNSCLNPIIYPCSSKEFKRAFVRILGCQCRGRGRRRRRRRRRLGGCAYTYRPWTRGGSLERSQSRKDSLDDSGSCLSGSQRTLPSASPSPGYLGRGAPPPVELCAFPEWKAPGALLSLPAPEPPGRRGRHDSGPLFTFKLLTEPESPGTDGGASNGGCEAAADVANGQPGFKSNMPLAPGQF
# 320 non-olfactory GPCRs [4] = target: T4, 320 non-olfactory GPCRs (Homo sapiens, UniProt Q01718); conditions: receptor MC2R; replicate values, Fig_4g
# T4 construct: expressed in transfected cells; host or cells: HTLA cells
# T4 sequence (Q01718 whole entry): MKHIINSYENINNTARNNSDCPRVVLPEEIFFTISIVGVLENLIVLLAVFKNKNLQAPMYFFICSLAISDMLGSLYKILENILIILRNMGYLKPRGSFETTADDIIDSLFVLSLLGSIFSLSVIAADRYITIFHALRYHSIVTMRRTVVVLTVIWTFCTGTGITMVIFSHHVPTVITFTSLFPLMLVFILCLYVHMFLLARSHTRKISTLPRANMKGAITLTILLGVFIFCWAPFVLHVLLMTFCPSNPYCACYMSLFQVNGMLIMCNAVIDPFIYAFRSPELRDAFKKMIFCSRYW
# 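Throughout, for Fold of Basal: compound tested at 1 µM final concentration.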
# 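Throughout, for GPCRome agonism screen response: fold over basal response of each receptor without drug.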
# T1 sequence (O00398 whole entry): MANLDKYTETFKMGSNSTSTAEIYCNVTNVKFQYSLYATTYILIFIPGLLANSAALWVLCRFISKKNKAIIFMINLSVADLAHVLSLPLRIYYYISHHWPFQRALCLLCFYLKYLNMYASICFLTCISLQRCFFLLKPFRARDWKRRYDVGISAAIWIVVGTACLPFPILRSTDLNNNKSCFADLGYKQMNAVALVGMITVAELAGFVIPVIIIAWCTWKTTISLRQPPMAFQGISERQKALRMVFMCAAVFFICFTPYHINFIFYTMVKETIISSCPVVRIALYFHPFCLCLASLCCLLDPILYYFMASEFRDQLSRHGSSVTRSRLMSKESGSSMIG
smiles,measurement,setting,value
CCOc1cccc2cc(C(C)NCC3(O)CCCCC3)oc12 (stereo not shown) [O4LE6],GPCRome agonism screen response,320 non-olfactory GPCRs [1],0.6744 and 0.6284 and 0.7052 and 0.972
same,Fold of Basal,320 non-olfactory GPCRs [2],1.069 and 1.057 and 1.21 and 0.9963
same,Fold of Basal,320 non-olfactory GPCRs [3],1.636 and 0.8834 and 1.032 and 1.027
same,GPCRome agonism screen response,320 non-olfactory GPCRs [4],1.011 and 1.168 and 0.7811 and 1.192
